This data set concerns Artemia salina. In words: Toxicity against Artemia salina after 24 hrs. Type of data set: organism-based. Conditions: in vivo.

Consider `C#CCCCC1OC(=O)CCNC(=O)[C@@H](Cc2ccccc2)N(C)C(=O)[C@H](C(C)C)OC(=O)[C@H](C(C)C)NC(=O)C1(C)C` (some centres not stated) [YANUCAMIDE A], for which the LD50 was 5 ppm.

For the molecule `C#CCCCC1OC(=O)CCNC(=O)[C@@H](Cc2ccccc2)N(C)C(=O)[C@H](C(C)C)OC(=O)[C@H]([C@H](C)CC)NC(=O)C1(C)C` (some centres not stated) [YANUCAMIDE B], the LD50 amounted to 5 ppm.

These data come from ChEMBL document CHEMBL1155673, “Yanucamides A and B, two new depsipeptides from an assemblage of the marine cyanobacteria Lyngbya majuscula and Schizothrix species” (J Nat Prod, 2000).
